Patent publication US5219825A, “Synergistic herbicidal compositions comprising herbicides which generate toxic oxygen radicals and chelating agents which inhibit their detoxification” (Yeda Research and Development Co., Ltd., priority 1986, dated 1993)

Tests used:
[1] = system: isolated Asparagus sprengeri cells; experiment: Chlorophyll loss in isolated cells (synergism at the cellular level); assay type: cell-based; conditions: for chlorophyll remaining - % of control: paraquat 0 μM, 14 h, 1000 μEin m^-2 s^-1; for % of control chlorophyll: DDC 0.02% where added, 40 h, low light 305 μEin m^-2 s^-1
Procedure: Isolated cells offer an excellent rapid method of screening for phytotoxicity using a large number of potential chelators and synergists. Asparagus sprengeri cells were isolated from cladophylls of field grown plants using the procedure of Colman et al. (Can. J. Botany 57 1505, (1979)) except that the isolation, washing and culture buffer was 50 mM HEPES brought to pH 7.2 with KOH. The cladophylls were surface sterilized using 80% aqueous ethanol. After three centrifugations to remove broken cells, the cells were diluted to 10% packed volume and 0.75 ml were placed in each well of cluster dishes. The potential synergists in this example 0.02% w/v final concentration diethyldithiocarbamate (DDC) and an oxime of 4-octyl-2-acetyl-phenol (U.S. Pat. No. 4,215,219) which complex primarily with copper and di-2-ethylhexyl-phosphoric acid which complexes primarily with zinc (Flett, Chem and Ind. 17 706, (1977)) was placed with the herbicides atrazine and paraquat. All additions were made at 100 fold the final concentration of herbicide and synergist. Paraquat was dissolved in water and atrazine in methanol. The cluster dishes were incubated on a reciprocal shaker with a clear plastic bottom and illuminated from top and bottom with fluorescent lights emitting 135 μEin.m^-2 s^-1 (top) and 170 μEin.m^-2 s^-1 (bottom). The cells were kept mixed by the shaker and incubation was at room temperature. Incubation was stopped when there was visually obvious loss of chlorophyll due to treatments in a given experiment. The cells were removed to glass centrifugation tubes, centrifuged and the supernatant removed. One ml of 80% aqueous acetone was added to extract chlorophyll, the debris were sedimented by centrifugation and chlorophyll was spectrophotometrically determined at 645 and 663 nm according to Arnon (Plant Physiology 24 1, (1949)). […] In another experiment, a larger variety of chelating synergists and oxidant generating herbicides were used, and light was given at a much higher intensity 1000 μEin m^-2 s^-1 to better approach natural sunlight which is at 1200-1500 […].
Paraquat toxicity was measured 24 h after treatment and atrazine toxicity was measured 40 h after treatment.
Paraquat toxicity was measured 14 h after treatment.

leaves = experiment: Blocked chelate controls tested for synergism with paraquat; assay type: in vivo
Excerpt: (§1) The commercial fungicides, maneb [manganese ethylene-bis(dithiocarbamate) (polymeric)] and zineb [zinc ethylene-bis (dithiocarbamate) (polymeric)] were used, they have similar structures and effects as DDC, but are blocked and act as chelate controls […] to clarify that a synergism would be due to the chelating effect of diethyldithiocarbamate. […] They could not chelate copper due to their being blocked.

bean leaf discs = experiment: Bean leaf disc bleaching assay; assay type: cell-based; conditions: 5 h at 450 μEin.m^-2 s^-1
Procedure: We used this bean leaf disc system to ascertain the potential of chelators to synergize a large variety of phytotoxicants purported to act by generating active oxygen species in the light.
Bean discs were incubated on solutions containing the above mixtures for 5 h at 450 μEin.m^-2 s^-1 and the chlorophyll remaining in the leaves was assayed.

[2] = system: Conyza bonariensis paraquat sensitive biotype; experiment: Phytotoxicity measured as 14CO2 fixation 24 h after spraying; assay type: in vivo; conditions: sensitive biotype
Procedure: (§2) Seeds of two biotypes of Conyza bonariensis (L.) Cronq. (synonym C. linifolia) were obtained from Egypt. The paraquat sensitive biotype was gathered near Alexendria and seeds of the resistant type from the Tahrir irrigation district. They were obtained from Dr. Martin Parham in England. Seeds were germinated in a growth room with a 14 h light period at 25° C. Plants were transferred out of doors 24 h before being sprayed. The phytotoxicity of three herbicides representative of the three different modes of generating active oxygen species known at present. Commercial paraquat (Gramoxone-ICI Plant Protection Ltd) was formulated with 0.1% (w/v) Tween-20 (a non-ionic surfactant) for spraying. The response to the range of 10^-5 M to 10^-2 M paraquat was measured by spraying two plants per concentration to run-off in the early morning. All plants were exposed to sunlight for at least 13 h (1300 μE.m^-2s^-1 photosynthetically active radiation (PAR) at mid day). Commercial acifluorfen (Blazer, Rohm, and Hass, Philadelphia, Pa., USA) to which was added 0.25% Tween-20 was sprayed to run-off. The response to spraying was measured as with paraquat 24 h after spraying. Commercial atrazine (Atranex 50 WP-Agan) was sprayed at various rates in 0.25% Tween 20 to run off. Fully expanded, 8 to 10 cm long leaves from plants in the rosette stage were used in all experiments. Phytotoxicity of acifluorfen and paraquat was measured as CO2 fixation 24 h later as follows: Detached leaves were placed on wet filter paper in a sealed chamber with 5μ Ci^14 C-sodium bicarbonate. Tartaric acid was remotely dripped on the sodium bicarbonate to release ^14 CO2. Leaves were illuminated with […] (PAR) for 30 min. Eighty percent acetone was added and the mixture put under strong light to photobleach pigments and evaporate the acetone. A scintillation mixture of Lumax:xylene (45:55) was added to the leaves and remaining water. The samples were counted and the data expressed as DPM.cm^-2. Area was measured with a planimeter from photocopies of the leaves made prior to photosynthesis measurements. Phytotoxicity of atrazine was measured as the elevated level of malonyldialdehyde in the tissue. Malonyldialdehyde (as measured with thiobarbituric acid according to Dodge and Gillham (Asp. Appl. Biol 11 97 (1986)) is a measurement of lipoxidation of unsaturated fatty acids, and provides an excellent estimation of damage by active oxygen species.

[3] = system: Conyza bonariensis paraquat tolerant biotype; experiment: as above; assay type: in vivo; conditions: tolerant biotype
Procedure: as §2

[4] = system: Conyza bonariensis high herbicide requiring biotype; experiment: Whole plant spray, visual rating; assay type: in vivo; conditions: DDC 0.5% where added, high herbicide requiring biotype; for visual ratings: scored one day after treatment
Excerpt: (§3) Seeds of Conyza bonariensis were germinated and plants cultivated as outlined in Example 1. Other species were germinated in a similar mixture and treated at 10 days.
as §1
(§4) ^a visual ratings (scored 1 day after treatment): 0 no damage to
(§5) slight burn; 1 moderate burn (may regenerate); 2 severe burn (will die)
(§6) Similarly, both the paraquat resistant and sensitive biotypes of Conyza bonariensis were treated with two other oxidant generating herbicides. Atrazine (of the triazine group) is the most widely used oxidant generating herbicides in agriculture. We used various dilutions of a commercial wettable powder (Atranex 50WP-Agan Chemicals) to which we added 0.5% DDC. The effects were scored 24 h later. […] We also tested to see whether acifluorfen, a nitro diphenyl ether herbicide would be synergized. It is generally agreed that light and oxygen are required for its action via oxidant damage. We sprayed a commercial formulation of acifluorfen (Blazer, Rohm and Haas) to which were added 0.25% Tween-20 detergent, with and without DDC. The effects were scored 24 h later.

[5] = system: Conyza bonariensis low herbicide requiring biotype; experiment: Photosynthesis (14CO2 fixation) of leaf discs removed 5 h after spray treatment; assay type: in vivo; conditions: foliar, DDC 0.5% where added, leaf discs removed 5 h after treatment, untreated control = 100
Procedure: as §6
^b photosynthesis (^14 CO2 fixation) was used as an
additional measurement of phytotoxicity. Leaf discs were removed 5 h afte
treatment for measurement

[6] = system: Conyza bonariensis low herbicide requiring biotype; experiment: Whole plant spray, visual rating; assay type: in vivo; conditions: DDC 0.5% where added, scored one day after treatment
Excerpt: as §3, §1, §4, §5, §6

[7] = system: Conyza bonariensis paraquat sensitive (low herbicide requiring) biotype; experiment: Malonyldialdehyde in tissue (lipoxidation, membrane damage) after spraying; assay type: in vivo; conditions: for membrane damage (malonyldialdehyde release): DDC 0.5% where added, low herbicide requiring biotype, untreated control = 100; for malonyldialdehyde in tissue (% untreated control): sensitive biotype
Procedure: as §2
(§7) ^b membrane damage was measured as malonyldialdehyde release
as §6

[8] = system: Conyza bonariensis paraquat tolerant (high herbicide requiring) biotype; experiment: as above; assay type: in vivo; conditions: for membrane damage (malonyldialdehyde release): DDC 0.5% where added, high herbicide requiring biotype, untreated control = 100; for malonyldialdehyde in tissue (% untreated control): tolerant biotype
Procedure: as §2, §7, §6

[9] = herbicide molar conc. 3.2 × 10^-3
[10] = atrazine 15 μM spray to run off
[11] = atrazine 30 μM spray to run off
[12] = atrazine 20 μM spray to run off
[13] = atrazine 40 μM spray to run off
[14] = atrazine molar conc. 1.0 × 10^-2
[15] = atrazine molar conc. 1.5 (× 10^-2)
[16] = atrazine molar conc. 2.0 (× 10^-2)
[17] = atrazine molar conc. 3.0 (× 10^-2)
[18] = atrazine molar conc. 4.0 (× 10^-2)
[19] = atrazine molar conc. 5.0 (× 10^-2)

**Q.** For `NCCNCCNCCN` [Triethylene-tetramine], which “chlorophyll remaining - % of control” value ([1]; chelator alone 0.008%) is on record?
**A.** 90 % of control

**Q.** For `CCCCCCCCc1ccc(O)c(C(C)=NO)c1` [4-Octyl-2-acetyl-phenol oxime, oxime of 4-octyl-2-acetyl-phenol], which “chlorophyll remaining - % of control” value ([1]; chelator alone 0.125%) is on record?
**A.** 96 % of control

**Q.** Which “chlorophyll remaining - % of control” value ([1]; chelator alone 0.005%) does the source give for `O=C(O)c1cccc(C(=O)O)n1` [Pyridine-2,6-dicarboxylic acid] here?
**A.** 100 % of control

**Q.** For “zinc ethylene-bis (dithiocarbamate) (polymeric) [zineb]”, which “synergistic effects with paraquat” value (leaves) is on record?
**A.** Neither maneb nor zineb had synergistic effects with paraquat

**Q.** For “manganese ethylene-bis(dithiocarbamate) (polymeric) [maneb]”, which “synergistic effects with paraquat” value (leaves) is on record?
**A.** Neither maneb nor zineb had synergistic effects with paraquat

**Q.** `CCCCC(CC)COP(=O)(O)OCC(CC)CCCC` (centres unmarked) [di-2-ethyl-hexyl-phosphoric acid, Di-2-ethyl-hexyl phosphoric acid] was tested. Which “chlorophyll - % of control” value (bean leaf discs; acifluorfen 0 μM, chelator alone 0.01% w/v) did it give?
**A.** 98 % of control

**Q.** And the “chlorophyll - % of control” value (bean leaf discs; acifluorfen 0 μM, chelator alone 0.02% w/v)?
**A.** 91 % of control

**Q.** What about the “chlorophyll - % of control” value (bean leaf discs; paraquat 0 μM, chelator alone 0.01% w/v) of the same compound?
**A.** 98 % of control

**Q.** And the “chlorophyll remaining - % of control” value ([1]; chelator alone 0.001%)?
**A.** 98 % of control

**Q.** `O=C(O)c1cc(Oc2ccc(C(F)(F)F)cc2Cl)ccc1[N+](=O)[O-]` [acifluorfen] was tested. Which “chlorophyll - % of control” value (bean leaf discs; acifluorfen 3 μM, chelator 0.01% w/v where added) did it give?
**A.** 91 % of control

**Q.** And the “% photosynthesis inhibition” value [2, 9]?
**A.** 72%

**Q.** What about the “% photosynthesis inhibition” value ([2]; herbicide molar conc. 3.2 × 10^-4) of the same compound?
**A.** 40%

**Q.** And the “% photosynthesis inhibition” value ([2]; herbicide molar conc. 10^-2)?
**A.** 98%

**Q.** What about the “% photosynthesis inhibition” value ([2]; herbicide molar conc. 10^-3) of the same compound?
**A.** 58%

**Q.** And the “% photosynthesis inhibition” value ([2]; herbicide molar conc. 10^-4)?
**A.** 23%

**Q.** And the “% photosynthesis inhibition” value [3, 9]?
**A.** 67%

**Q.** What about the “% photosynthesis inhibition” value ([3]; herbicide molar conc. 10^-2) of the same compound?
**A.** 99%

**Q.** And the “% photosynthesis inhibition” value ([3]; herbicide molar conc. 10^-3)?
**A.** 21%

**Q.** What about the visual rating ([4]; acifluorfen 100 μM spray to runoff, scored 24 h after treatment) of the same compound?
**A.** 2.5

**Q.** What about the activity at 3 µM ([5]; acifluorfen 3 μM spray to runoff) of the same compound?
**A.** 75%

**Q.** And the activity at 100 µM ([5]; acifluorfen 100 μM spray to runoff)?
**A.** 10%

**Q.** `NCCNCCNCCNCCN` [Tetraethylene-pentamine, tetraethylene pentamine] was tested. Which “chlorophyll remaining - % of control” value ([1]; chelator alone 0.025%) did it give?
**A.** 99 % of control

**Q.** What does the source list for `CCNc1nc(Cl)nc(NC(C)C)n1` [atrazine]?
**A.** visual ratings [6, 10]: 2.1; visual ratings [6, 11]: 2.3; visual ratings [4, 10]: 1.7; visual ratings [4, 11]: 1.7; % of control chlorophyll ([1]; atrazine 3 × 10^-6 M, 3 µM): 95 % of control; % of control chlorophyll ([1]; atrazine 10^-5, 10 µM): 92 % of control; membrane damage (malonyldialdehyde release) [7, 12]: 130; membrane damage (malonyldialdehyde release) [7, 13]: 225; malonyldialdehyde in tissue (% untreated control) [7, 14]: 100 % untreated control; malonyldialdehyde in tissue (% untreated control) [7, 15]: 135 % untreated control; malonyldialdehyde in tissue (% untreated control) [7, 16]: 130 % untreated control; malonyldialdehyde in tissue (% untreated control) [7, 17]: 155 % untreated control; malonyldialdehyde in tissue (% untreated control) [7, 18]: 225 % untreated control; malonyldialdehyde in tissue (% untreated control) [7, 19]: 320 % untreated control; membrane damage (malonyldialdehyde release) [8, 12]: 100; membrane damage (malonyldialdehyde release) [8, 13]: 100; malonyldialdehyde in tissue (% untreated control) [8, 14]: 100 % untreated control; malonyldialdehyde in tissue (% untreated control) [8, 15]: 100 % untreated control; malonyldialdehyde in tissue (% untreated control) [8, 16]: 100 % untreated control; malonyldialdehyde in tissue (% untreated control) [8, 17]: 100 % untreated control; malonyldialdehyde in tissue (% untreated control) [8, 18]: 100 % untreated control; malonyldialdehyde in tissue (% untreated control) [8, 19]: 125 % untreated control
